In the NIST ThermoML archive (doi:10.1021/acs.jced.6b00750):

Assay: xn = mol fraction of the nth substance listed
Conditions: Liquid; for mass density: Vibrating wire densiometer; for viscosity: Vibrating wire viscometry

CCCCCCCCCCCCCCCC [hexadecane] + O=C=O
Conditions	mass density [kg/m3]	viscosity [mPa·s]
298.14 K, 21810 kPa, x2 = 0.727	822.6	0.786
298.14 K, 22010 kPa, x2 = 0.727	822.8	0.787
298.14 K, 31030 kPa, x2 = 0.727	831.7	0.861
298.14 K, 41130 kPa, x2 = 0.727	840.7	0.943
298.16 K, 10920 kPa, x2 = 0.069	776.3	3.057
298.16 K, 11130 kPa, x2 = 0.069	776.5	3.075
298.16 K, 21440 kPa, x2 = 0.069	782.8	3.474
298.16 K, 30250 kPa, x2 = 0.069	787.6	3.87
298.18 K, 10440 kPa, x2 = 0.5877	802.3	1.003
298.18 K, 10670 kPa, x2 = 0.5877	802.7	0.998
298.18 K, 20560 kPa, x2 = 0.5877	811.8	1.107
298.18 K, 30070 kPa, x2 = 0.5877	819.7	1.219
298.18 K, 40380 kPa, x2 = 0.5877	827.4	1.344
323.12 K, 21230 kPa, x2 = 0.727	796.3	0.565
323.12 K, 21410 kPa, x2 = 0.727	796.3	0.565
323.12 K, 40330 kPa, x2 = 0.727	817.3	0.679
323.12 K, 60540 kPa, x2 = 0.727	835.2	0.806
323.12 K, 80280 kPa, x2 = 0.727	850.1	0.93
323.12 K, 100230 kPa, x2 = 0.727	863.2	1.064
323.12 K, 119920 kPa, x2 = 0.727	874.7	1.204
323.15 K, 10410 kPa, x2 = 0.069	759.1	1.83
323.15 K, 10420 kPa, x2 = 0.069	759.2	1.827
323.15 K, 10630 kPa, x2 = 0.5877	779	0.704
323.15 K, 10860 kPa, x2 = 0.5877	779.5	0.703
323.15 K, 20230 kPa, x2 = 0.069	765.7	2.061
323.15 K, 20850 kPa, x2 = 0.5877	790.2	0.786
323.15 K, 40110 kPa, x2 = 0.5877	807.6	0.947
323.15 K, 40860 kPa, x2 = 0.069	778.3	2.56
323.15 K, 60100 kPa, x2 = 0.5877	822.7	1.122
323.15 K, 60910 kPa, x2 = 0.069	788.7	3.13
323.15 K, 80840 kPa, x2 = 0.069	798.2	3.755
323.15 K, 99870 kPa, x2 = 0.069	806	4.474
373.08 K, 10380 kPa, x2 = 0.069	726.3	0.927
373.08 K, 12120 kPa, x2 = 0.069	728	0.947
373.08 K, 21470 kPa, x2 = 0.069	735.9	1.048
373.08 K, 26470 kPa, x2 = 0.727	752.5	0.365
373.08 K, 26600 kPa, x2 = 0.727	752.7	0.365
373.08 K, 40330 kPa, x2 = 0.069	749.9	1.263
373.08 K, 40830 kPa, x2 = 0.727	773	0.424
373.08 K, 60000 kPa, x2 = 0.727	794.6	0.503
373.08 K, 60300 kPa, x2 = 0.069	762.5	1.514
